# Assay results from the supplement of paper PMC10331698.
# ± gives the standard deviation of the averaged measurements.
# Columns and labels:
# Assay in all cases: level (log10 ratio to DMSO vehicle control); higher = higher biomarker level / cell amount than vehicle control
# Conditions in all cases: in DMSO
# [1] = compound: C=CC(=O)OCC(F)(F)C(F)(F)C(F)(F)C(F)(F)C(F)(F)C(F)(F)C(F)(F)F [1H,1H-Perfluorooctyl acrylate]
# Experimental: (§1)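 BioMAP Diversity Plus panel of 12 human primary cell co-culture systems (3C, 4H, LPS, SAg, BT, BF4T, BE3C, CASM3C, HDF3CGF, KF3CT, MyoF, Mphg). Compounds were added 1 h before stimulation and left for 24 h (MyoF 48 h; BT 72 h for soluble read-outs or 6 d for IgG). Biomarkers were read by ELISA, cytotoxicity by SRB, PBMC viability and proliferation by Alamar Blue. Each well value was divided by the mean of 8 DMSO control wells on the same plate and log10 transformed; duplicate blinded samples were tested at 4 concentrations.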
# [2] = compound: COC(=O)CCC(F)(F)C(F)(F)C(F)(F)C(F)(F)F [Methyl 2H,2H,3H,3H-perfluoroheptanoate]
# Experimental: as §1
# Perfluoropentanoic acid = compound: O=C(O)C(F)(F)C(F)(F)C(F)(F)C(F)(F)F [Perfluoropentanoic acid]
# Experimental: as §1
# [3] = compound: O=C(O)C(F)(F)C(F)(F)C(F)F [4H-Perfluorobutanoic acid]
# Experimental: as §1
# [4] = compound: O=C(O)C(F)(F)OC(F)(F)C(F)(F)OC(F)(F)C(=O)O [Perfluoro-3,6-dioxaoctane-1,8-dioic acid]
# Experimental: as §1
# [5] = compound: O=S(=O)(O)C(F)(F)C(F)(F)C(F)(F)C(F)(F)C(F)(F)C(F)(F)F [Perfluorohexanesulfonic acid]
# Experimental: as §1
Test System,level (log10) ([1]; 6700 nM),level (log10) ([1]; 20000 nM),level (log10) ([1]; 60000 nM),level (log10) ([2]; 6700 nM),level (log10) ([2]; 20000 nM),level (log10) ([2]; 60000 nM),level (log10) (Perfluoropentanoic acid; 6700 nM),level (log10) (Perfluoropentanoic acid; 20000 nM),level (log10) (Perfluoropentanoic acid; 60000 nM),level (log10) ([3]; 6700 nM),level (log10) ([3]; 20000 nM),level (log10) ([3]; 60000 nM),level (log10) ([4]; 6700 nM),level (log10) ([4]; 20000 nM),level (log10) ([4]; 60000 nM),level (log10) ([5]; 6700 nM),level (log10) ([5]; 20000 nM),level (log10) ([5]; 60000 nM)
MyoF:Collagen III,0.0005 ± 0.013,-0.007 ± 0.024,-0.0055 ± 0.021,-0.0085 ± 0.0092,-0.007 ± 0.0014,-0.015 ± 0.0057,-0.001 ± 0.0028,0.0055 ± 0.0021,-0.001 ± 0.0085,0.022 ± 0.0099,0.0155 ± 0.0064,0.034 ± 0.014,0.0035 ± 0.0078,-0.005 ± 0.017,0.0065 ± 0.015,0.0035 ± 0.005,-0.013 ± 0.0028,-0.0125 ± 0.033
MyoF:Collagen IV,0.034 ± 0.054,0.03 ± 0.035,0.062 ± 0.071,-0.0335 ± 0.03,-0.0285 ± 0.021,-0.0115 ± 0.029,-0.007 ± 0.025,-0.012 ± 0.016,-0.0025 ± 0.023,0.0025 ± 0.0035,0.0005 ± 0.0035,0.023 ± 0.027,-0.0165 ± 0.013,-0.011 ± 0.031,0.0295 ± 0.00071,-0.023 ± 0.018,-0.0065 ± 0.032,0 ± 0.031
MyoF:Decorin,-0.0145 ± 0.011,-0.005,0.003 ± 0.018,-0.001 ± 0.013,0.015 ± 0.0028,0.0175 ± 0.052,-0.015 ± 0.0028,-0.0125 ± 0.0092,0.005 ± 0.048,-0.005 ± 0.048,0.003 ± 0.064,0.0655 ± 0.088,-0.0045 ± 0.011,-0.01,-0.0005 ± 0.013,-0.0305 ± 0.046,-0.0105 ± 0.00071,-0.0095 ± 0.0064
MyoF:MMP-1,-0.0135 ± 0.019,-0.016,0.0275 ± 0.005,-0.009 ± 0.0071,-0.019 ± 0.011,0.0305 ± 0.12,-0.009 ± 0.02,-0.0215 ± 0.011,0.009 ± 0.071,-0.0355 ± 0.07,-0.07 ± 0.054,0.022 ± 0.044,-0.0065 ± 0.0092,-0.0155 ± 0.019,0.0225 ± 0.067,-0.029 ± 0.0085,-0.012,-0.002 ± 0.0028
MyoF:PAI-I,0.005 ± 0.016,-0.0005 ± 0.018,-0.0065 ± 0.0078,-0.003,0.0055 ± 0.0078,0.003 ± 0.014,-0.0035 ± 0.00071,0.005 ± 0.0071,0.0075 ± 0.0021,-0.0105 ± 0.019,-0.023 ± 0.023,-0.0095 ± 0.011,0.003 ± 0.013,-0.0005 ± 0.0064,0.005 ± 0.0085,-0.0055 ± 0.013,-0.0135 ± 0.015,-0.0055 ± 0.012
MyoF:SRB,-0.003 ± 0.011,-0.012 ± 0.018,-0.0335 ± 0.005,-0.004 ± 0.0028,0.0065 ± 0.0035,0.0065 ± 0.0064,0.003 ± 0.0028,-0.009 ± 0.0014,-0.004 ± 0.0057,0.0005 ± 0.013,0.002 ± 0.0085,0.0055 ± 0.0021,0 ± 0.011,-0.007 ± 0.0042,0.0065 ± 0.0078,0.003 ± 0.0057,-0.0045 ± 0.0035,-0.0165 ± 0.021
MyoF:TIMP-1,0.0075 ± 0.012,0.037 ± 0.0014,0.0405 ± 0.005,-0.0585 ± 0.047,-0.02 ± 0.035,0.01 ± 0.014,-0.0195 ± 0.023,-0.043 ± 0.034,-0.002 ± 0.042,0.0045 ± 0.039,0.023 ± 0.016,0.0465 ± 0.076,0.0065 ± 0.056,0.02 ± 0.037,0.026 ± 0.0014,0.0215 ± 0.064,0.0835 ± 0.053,0.099 ± 0.042
MyoF:alpha-SM Actin,0.016 ± 0.0085,-0.0215 ± 0.032,-0.0185 ± 0.039,-0.009 ± 0.024,-0.007 ± 0.02,-0.0035 ± 0.04,0.0265 ± 0.07,0.0355 ± 0.052,0.0485 ± 0.044,-0.0335 ± 0.047,-0.0245 ± 0.049,-0.026 ± 0.034,0.001,-0.0125 ± 0.013,0.0245 ± 0.0021,0.012 ± 0.0071,0.006 ± 0.021,0.008 ± 0.031
MyoF:bFGF,0.003,-0.0055 ± 0.0021,0.012 ± 0.024,-0.0125 ± 0.012,-0.008 ± 0.013,-0.0075 ± 0.019,-0.021 ± 0.0014,-0.0085 ± 0.0078,-0.0055 ± 0.0035,-0.023 ± 0.016,-0.007 ± 0.02,0.0045 ± 0.012,0.0075 ± 0.021,0.001 ± 0.0099,0 ± 0.018,0.0035 ± 0.005,0.005 ± 0.0085,0.004 ± 0.014
lMphg:CCL2/MCP-1,-0.0065 ± 0.039,-0.016 ± 0.0057,0.002 ± 0.03,-0.004 ± 0.0085,-0.011 ± 0.011,0.003 ± 0.031,0.038 ± 0.0028,0.0155 ± 0.03,0.0015 ± 0.035,-0.024 ± 0.027,-0.0125 ± 0.0035,0.0005 ± 0.021,-0.0165 ± 0.021,-0.019 ± 0.027,-0.008 ± 0.0057,-0.014 ± 0.0085,0.006 ± 0.037,0.054 ± 0.024
lMphg:CCL3/MIP-1alpha,0.0215 ± 0.028,0.04 ± 0.0071,0.057 ± 0.0099,-0.0315 ± 0.005,-0.013 ± 0.0028,-0.004 ± 0.045,0.008 ± 0.059,-0.006 ± 0.055,0.006 ± 0.055,-0.0075 ± 0.037,0.004 ± 0.016,0.0235 ± 0.011,-0.036 ± 0.025,-0.045 ± 0.0042,-0.027 ± 0.04,-0.006 ± 0.04,0.0055 ± 0.037,0.045 ± 0.034
lMphg:CD40,-0.0125 ± 0.049,-0.0125 ± 0.097,-0.0635 ± 0.039,-0.0295 ± 0.0035,-0.0285 ± 0.005,-0.039 ± 0.034,0.0225 ± 0.0092,-0.0085 ± 0.0064,0.0175 ± 0.0078,0.0065 ± 0.028,-0.0035 ± 0.039,0.007 ± 0.024,-0.03 ± 0.017,-0.0085 ± 0.013,-0.0105 ± 0.016,-0.0205 ± 0.037,0.019 ± 0.011,0.0045 ± 0.011
lMphg:CD62E/E-Selectin,-0.0075 ± 0.023,0.004 ± 0.017,-0.004 ± 0.021,-0.004 ± 0.0028,-0.0245 ± 0.016,-0.0075 ± 0.018,0.012 ± 0.0057,-0.008 ± 0.014,0.003 ± 0.042,-0.012 ± 0.0028,0.0025 ± 0.0092,0.0145 ± 0.0064,-0.027 ± 0.034,-0.018 ± 0.016,0.0185 ± 0.0092,0.0145 ± 0.00071,0.019 ± 0.0099,0.0955 ± 0.035
lMphg:CD69,-0.0255 ± 0.012,-0.016 ± 0.033,-0.0135 ± 0.013,-0.016 ± 0.028,-0.029 ± 0.033,0.006 ± 0.017,-0.0315 ± 0.0092,-0.0525 ± 0.013,0.0175 ± 0.077,0.0185 ± 0.032,-0.0175 ± 0.0021,0.0095 ± 0.019,-0.0565 ± 0.015,0 ± 0.054,-0.024 ± 0.098,-0.007 ± 0.027,0.007 ± 0.04,-0.036 ± 0.018
lMphg:CD106/VCAM-1,-0.0115 ± 0.022,-0.001 ± 0.018,-0.0145 ± 0.037,-0.0055 ± 0.012,0.009 ± 0.0057,0.0055 ± 0.037,0.005 ± 0.02,0.0125 ± 0.018,0.016 ± 0.0057,0.003 ± 0.0028,0.0125 ± 0.016,0.003 ± 0.014,-0.013 ± 0.0071,-0.0165 ± 0.0021,-0.0165 ± 0.036,-0.011 ± 0.044,0.0075 ± 0.0035,0.005 ± 0.011
lMphg:CXCL8/IL-8,0.0185 ± 0.005,0.029 ± 0.0071,0.0295 ± 0.005,-0.0045 ± 0.018,-0.0025 ± 0.0064,-0.0005 ± 0.018,0.005 ± 0.031,-0.0275 ± 0.013,0.044 ± 0.064,0.024 ± 0.0028,0.0145 ± 0.0021,0.0315 ± 0.011,-0.024 ± 0.027,0 ± 0.068,-0.002 ± 0.085,0.029 ± 0.11,0.052 ± 0.088,0.169 ± 0.18
lMphg:IL-1alpha,0.0115 ± 0.022,0.002 ± 0.038,0.0155 ± 0.037,-0.0215 ± 0.056,-0.0265 ± 0.035,0.029 ± 0.082,-0.0095 ± 0.022,-0.0195 ± 0.046,0.01 ± 0.05,-0.0055 ± 0.0064,-0.0355 ± 0.0064,0.017 ± 0.035,0.009 ± 0.018,0.001,0.0015 ± 0.0035,0.023 ± 0.095,0.012 ± 0.047,0.0305 ± 0.063
